Laboratory results: ChEMBL document CHEMBL4020841, “Structure Guided Lead Generation toward Nonchiral M. tuberculosis Thymidylate Kinase Inhibitors” (J Med Chem, 2018)
Activity calls are given as the source filed them. The rule behind the calls is not given here.

Tested on: Mycobacterium tuberculosis
Assay: Antimicrobial activity against Mycobacterium tuberculosis H37Ra ATCC 25177 harboring pSMT1 luciferase reporter plasmid up to 64 uM after 7 days by luminometric method
Assay type: functional

Question: `Cc1cn(C2CCN(Cc3cccc4ccccc34)CC2)c(=O)[nH]c1=O` was tested. Which Activity did it give?
Answer: Its Activity is “inactive”.

Question: Which Activity does the source give for `Cc1cn(C2CCN(Cc3ccncc3)CC2)c(=O)[nH]c1=O` here?
Answer: The Activity was “inactive”.

Question: With `Cc1ccc(CN2CCC(n3cc(C)c(=O)[nH]c3=O)CC2)cc1` as the compound, how does the Activity read?
Answer: The Activity was “inactive”.

Question: For `Cc1cn(C2CCN(Cc3cccnc3)CC2)c(=O)[nH]c1=O`, which Activity is on record?
Answer: Its Activity is “inactive”.

Question: For `Cc1cccc(CN2CCC(n3cc(C)c(=O)[nH]c3=O)CC2)c1`, which Activity is on record?
Answer: Its Activity is “inactive”.

Question: How did the Activity turn out when `Cc1cn(C2CCN(CC3CCCCC3)CC2)c(=O)[nH]c1=O` was run?
Answer: The Activity was “inactive”.

Question: Which Activity does the source give for `Cc1cn(C2CCN(Cc3cnc4ccccc4c3)CC2)c(=O)[nH]c1=O` here?
Answer: Its Activity is “inactive”.

Question: How did the Activity turn out when `Cc1cn(C2CCN(CCc3cccc(Oc4ccccc4)c3)CC2)c(=O)[nH]c1=O` was run?
Answer: The Activity was “inactive”.

Question: How did the Activity turn out when `Cc1cn(C2CCN(C(=O)c3ccc(Oc4ccccc4)cc3)CC2)c(=O)[nH]c1=O` was run?
Answer: Its Activity is “inactive”.

Question: With `COc1ccc(CN2CCC(n3cc(C)c(=O)[nH]c3=O)CC2)cc1` as the compound, how does the Activity read?
Answer: Its Activity is “inactive”.

Question: For `Cc1cn(C2CCN(Cc3cccc(Oc4ccccc4)c3)CC2)c(=O)[nH]c1=O`, which Activity is on record?
Answer: Its Activity is “inactive”.

Question: Which Activity does the source give for `Cc1cn(CC2CCN(Cc3ccc(Oc4ccccc4)cc3)CC2)c(=O)[nH]c1=O` here?
Answer: Its Activity is “inactive”.

Question: Which Activity does the source give for `Cc1cn(C2CN(CCCc3cccc(Oc4ccccc4)c3)C2)c(=O)[nH]c1=O` here?
Answer: Its Activity is “inactive”.

Question: For `Cc1cn(C2CCN(Cc3cccc(C(=O)O)n3)CC2)c(=O)[nH]c1=O`, which Activity is on record?
Answer: The Activity was “inactive”.

Question: How did the Activity turn out when `Cc1cn(C2CCN(Cc3cc4ccccc4cn3)CC2)c(=O)[nH]c1=O` was run?
Answer: The Activity was “inactive”.

Question: Which Activity does the source give for `Cc1cn(C2CCN(Cc3ccc4ccccc4c3)CC2)c(=O)[nH]c1=O` here?
Answer: Its Activity is “inactive”.

Question: For `Cc1cn(C2CCN(Cc3ccccc3)CC2)c(=O)[nH]c1=O`, which Activity is on record?
Answer: Its Activity is “inactive”.

Question: With `Cc1cn(C2CCN(Cc3ccnc4ccccc34)CC2)c(=O)[nH]c1=O` as the compound, how does the Activity read?
Answer: Its Activity is “inactive”.

Question: Which Activity does the source give for `Cc1cn(C2CCN(Cc3ccc(N(C)C)cc3)CC2)c(=O)[nH]c1=O` here?
Answer: Its Activity is “inactive”.

Question: With `Cc1cn(C2CN(Cc3ccc(Oc4ccccc4)cc3)C2)c(=O)[nH]c1=O` as the compound, how does the Activity read?
Answer: Its Activity is “inactive”.

Question: How did the Activity turn out when `Cc1cn(C2CN(CCc3cccc(Oc4ccccc4)c3)C2)c(=O)[nH]c1=O` was run?
Answer: The Activity was “inactive”.

Question: For `Cc1cn(C2CCN(Cc3ccoc3)CC2)c(=O)[nH]c1=O`, which Activity is on record?
Answer: The Activity was “inactive”.

Question: With `Cc1cn(C2CCN(Cc3ccc(C#N)cc3)CC2)c(=O)[nH]c1=O` as the compound, how does the Activity read?
Answer: The Activity was “inactive”.

Question: `Cc1cn(C2CCN(Cc3cncc4ccccc34)CC2)c(=O)[nH]c1=O` was tested. Which Activity did it give?
Answer: The Activity was “inactive”.

Question: For `Cc1cn(C2CCN(C(=O)c3cccc(Oc4ccccc4)c3)CC2)c(=O)[nH]c1=O`, which Activity is on record?
Answer: Its Activity is “inactive”.

Question: With `Cc1cn(C2CCN(Cc3cc(Oc4ccccc4)c4ccc(Cl)cc4n3)CC2)c(=O)[nH]c1=O` as the compound, how does the Activity read?
Answer: The Activity was “inactive”.

Question: With `Cc1cn(C2CCN(Cc3ccccn3)CC2)c(=O)[nH]c1=O` as the compound, how does the Activity read?
Answer: Its Activity is “inactive”.

Question: With `Cc1cn(C2CCN(Cc3cc4ccccc4o3)CC2)c(=O)[nH]c1=O` as the compound, how does the Activity read?
Answer: The Activity was “inactive”.

Question: With `Cc1cn(C2CCN(Cc3ccc(Oc4ccccc4)cc3)CC2)c(=O)[nH]c1=O` as the compound, how does the Activity read?
Answer: The Activity was “inactive”.

Question: With `Cc1cn(C2CCN(Cc3ccco3)CC2)c(=O)[nH]c1=O` as the compound, how does the Activity read?
Answer: Its Activity is “inactive”.

Question: How did the Activity turn out when `Cc1cn(C2CCN(Cc3ccc(Cl)cc3)CC2)c(=O)[nH]c1=O` was run?
Answer: Its Activity is “inactive”.

Question: How did the Activity turn out when `Cc1cn(CC2CCN(Cc3cccc(Oc4ccccc4)c3)CC2)c(=O)[nH]c1=O` was run?
Answer: The Activity was “inactive”.

Question: How did the Activity turn out when `Cc1cn(C2CN(Cc3cccc(Oc4ccccc4)c3)C2)c(=O)[nH]c1=O` was run?
Answer: Its Activity is “inactive”.

Question: With `Cc1cn(C2CCN(Cc3nccc4ccccc34)CC2)c(=O)[nH]c1=O` as the compound, how does the Activity read?
Answer: The Activity was “inactive”.

Question: `Cc1cn(C2CCN(Cc3ccc(C(=O)O)cc3)CC2)c(=O)[nH]c1=O` was tested. Which Activity did it give?
Answer: The Activity was “inactive”.
